According to patent US20050192240A1, “Methods and compositions relating to expression factors” (priority 2004, published 2005):
Values after ≈ are worked out from the molar mass of the structure shown. Where two headings read alike, the source gives them in different places.

Legend:
Type in all cases: cell-based
[1] = system: C. albicans; assay: RT-PCR of CDR1 and CaNDT80 mRNA with or without miconazole; conditions: miconazole 100 μg/ml, one hour, 30° C.; strains SC5314, YLO133, YLO137
Description: C. albicans strains SC5314 (wild type), YLO133 (homozygous mutant Candt80/Candt80) and YLO137 (rescued strain of YLO133 with one copy of CaNDT80), were grown in the presence or absence of the antifungal agent, miconazole (Sigma) at 100 μg/ml for one hour at 30° C. The level of mRNAs of TEF3 (control), CDR1, and CaNDT80, was measured by reverse transcriptase polymerase chain reaction (RT-PCR). […] Lanes 2-4 and 11-13 represent mRNA from YLO133 (homozygous mutant), lanes 5-7 and 14-16 represent mRNA from YLO137 (rescued mutant), and lanes 8-10 and 17-19 represent mRNA from the wild-type strain, SC5314. Lanes 2, 5, 8, 11, 14, and 17 were tested for TEF3 mRNA (internal control); lanes 3, 6, 9, 12, 15, and 18, were tested for CDR1 mRNA; and lanes 4, 7, 10, 13, 16, and 19 were tested for CaNDT80 mRNA. As expected, no CaNDT80 mRNA was detected in the homozygous mutant (FIG. 9, lanes […] and 13). In contrast, CaNDT80 mRNA was detected in the wild-type strain during vegetative growth (FIG. 9, lanes 10 and 19), unlike its homolog NDT80 in S. cerevisiae.

[2] = system: C. albicans; assay: Etest antifungal strip susceptibility of C. albicans strains
Description: The three C. albicans strains SC5314 (wild type), YLO133 (homozygous mutant Candt80/Candt80) and YLO137 (rescued strain of YLO133 with one copy of CaNDT80), were also tested for susceptibility to five different drugs using the Etest. Five different antifungal strips (AB BIODISK, Solna, Sweden) were used: amphotericin B at 0.002-32 μg/ml (AP), 5-fluorocytosine at 0.002-32 μg/ml (FC), fluconazole at 0.016-256 μg/ml (FL), itraconazole at 0.002-32 μg/ml (IT) and ketoconazole at 0.002-32 μg/ml (KE). Each strain was grown overnight on an SD plate and homogenized colonies from the plate were transferred into 0.85% NaCl to achieve a suspension of about 5×10^6 cells/ml. A sterile swab was dipped into the inoculum suspension and the entire agar surface of a SD plate was evenly streaked. Each plate was dried until excess moisture was completely absorbed and each of the five different Etest strips were applied onto each plate. The plates were incubated at 30° C. and were photographed after 2 days of growth. Susceptibility to a drug is indicated by a clear inhibition zone around the antifungal strip where growth has been inhibited. Degree of susceptibility is indicated by the size of the ring.

[3] = system: S. cerevisiae; assay: Etest antifungal strip susceptibility of S. cerevisiae strains; conditions: for MIC: Saccharomyces cerevisiae, SD plate, 30° C., read-out: minimum inhibitory concentration (MIC)
Excerpt: The effect on drug susceptibility by overexpression of CaNdt80p and its S. cerevisiae homolog, Ndt80p, were compared using the antifungal strips, Etest (AB BIODISK, Solna, Sweden) (Arendrup et al., J. Antimicrob. Chemother. 47:521-526, 2001; Chang et al., J. Clin. Microbiol 39:1328-1333, 2001). S. cerevisiae Ndt80p was identified as a meiosis specific transcription factor (Chu et al., Science 282:699-705, 1998; Chu and Herskowitz, Mol. Cell 1:685-696, 1998). Ndt80p is autoregulated and activates its targets through a mid-sporulation element consensus site (MSE: gNCRCAAAA/T) in the target (Chu and Herskowitz, Mol. Cell 1:685-696, 1998). Expression of the NDT80 gene is repressed during vegetative growth (Xu et al., Mol. Cell Biol. 15:6572-6581, 1995; Pak and Segall, Mol. Cell Biol. 22:6417-6429, 2002).
First, homogenized isolated colonies from an overnight SD plate were transferred into a 0.85% NaCl solution to achieve a suspension containing 5×10^6 cells/ml. A sterile swab was dipped into the inoculum suspension and the entire agar surface of an SD plate was streaked evenly with the swab. The plates were allowed to dry until all excess moisture was completely absorbed, and the Etest strips (AB BIODISK, Solna, Sweden) were applied onto each plate. The plates were incubated at 30° C. and were photographed after 3 days of growth. These Etest strips tested the susceptibility to ketoconazole (0.002-32 μg/ml) (KE) and fluconazole (0.016-256 μg/ml) (FL). Susceptibility is indicated by a clear ring around the antifungal strips where growth has been inhibited. Degree of susceptibility is indicated by the size of the ring. The strains tested were the NDT80/NDT80 wild type S. cerevisiae strain transformed with the control vectors 2μ-URA3and CEN-LEU2 (Christianson et al., Gene 110:119-122, 1992; Sikorski and Hieter, Genetics 122:19-27, 1989) (designated as strain SLO16) (“NDT80/NDT80” lane in FIG. 6); a ndt80/ndt80 homozygous mutant transformed with the control 2μ-URA3 vector (designated as strain SLO14) (“ndt80/ndt80 2μ vector” lane in FIG. 6); a ndt80/ndt80 homozygous mutant transformed with the 2μ-URA3-NDT80 plasmid, LOB46 (designated as strain SLO13) (“ndt80/ndt80 2μ NDT80” lane in FIG. 6); and a ndt80/ndt80 homozygous mutant transformed with the 2μ-URA3-CaNDT80 plasmid, LOB44 (designated as strain SLO15) (“ndt80/ndt80 2μ CaNDT80” lane in FIG. 6).
In a separate experiment, a strain harboring the LOB44 plasmid without the NDT80 gene was tested in the Etest.

[4] = system: C. albicans; assay: Agar dilution assay of C. albicans strains; conditions: Candt80/Candt80 mutant versus wild-type or rescued strain; fluconazole 25 μg/ml, voriconazole 1 μg/ml
Description: The cdr1/cdr1 homozygous mutant was constructed according to Sanglard et al., Antimicrob. Agents Chemother. 40:2300-2305, 1996. Fluconazole and voriconazole were prepared to a final concentration of 25 μg/ml and 1 μg/ml, respectively in dimethylsulfoxide (DMSO). C. albicans cells grown on media containing DMSO and in the absence of drug, was used as the control. C. albicans cells were diluted to an OD600 of 2 (corresponding to approximately 2×10^7cells/ml) and 0.5 μl was spotted onto plates containing either fluconazole (25 μg/ml) or voriconazole (1 μg/ml) using a replica device (Oxoid Inc., Canada). Cells were also prepared and spotted in 10-fold serial dilutions (10^4 to 10 cells).

[5] = homozygous mutant Candt80/Candt80 (YLO133) compared with wild type SC5314, 2 days
[6] = S. cerevisiae overexpressing CaNDT80 (LOB44 plasmid)
[7] = S. cerevisiae transformed with control vector

Row | SMILES | drug susceptibility (inhibition zone) [2, 5] | MIC [3, 6] [µg/mL] | MIC [3, 7] [µg/mL] | susceptibility (growth on drug plates) [4] | further results
1 | Clc1ccc(COC(Cn2ccnc2)c2ccc(Cl)cc2Cl)c(Cl)c1 (stereo not drawn) [miconazole] | – | – | – | – | patterns of TEF3, CDR1 and CaNDT80 mRNA with versus without treatment [1]: comparable
2 | Nc1nc(=O)[nH]cc1F [5-fluorocytosine] | increased susceptibility | – | – | – | –
3 | CC(=O)N1CCN(c2ccc(OCC3COC(Cn4ccnc4)(c4ccc(Cl)cc4Cl)O3)cc2)CC1 (stereo not drawn) [ketoconazole] | increased susceptibility | ≥ 32 | 6 (≈ 11.3 µM) | – | drug susceptibility (inhibition zone) ([3]; ndt80/ndt80 2μ CaNDT80 compared with NDT80/NDT80 S. cerevisiae, 3 days): decreased
4 | C[C@@H](c1ncncc1F)[C@](O)(Cn1cncn1)c1ccc(F)cc1F [voriconazole] | – | – | – | more susceptible | –
5 | OC(Cn1cncn1)(Cn1cncn1)c1ccc(F)cc1F [fluconazole] | increased susceptibility | 64 (≈ 209 µM) | 24 (≈ 78.4 µM) | more susceptible | drug susceptibility (inhibition zone) ([2]; rescued strain YLO137 (one copy of CaNDT80) compared with wild type SC5314, 2 days): more susceptible
